Results: US7273723B2, “Antibiotic-based gene regulation system” (priority 2001, dated 2007)

What was measured:
[1] = tested on: erythromycin-dependent transactivators ET (MphR(A) fusions) / PETR promoters; assay: SEAP reporter assay, CHO-K1 transiently cotransfected with ET transactivator and PETR-SEAP plasmids; assay type: cell-based, Chinese hamster
Method: (§1) Chinese hamster ovary cells (CHO-K1, ATCC: CCL 61), and HeLa cells (ATCC: CRL-7923) as well as stable cell lines derived thereof were cultured as described before (Fussenegger et al., 1998, Nat. Biotechnol. 16,468-472) in the presence of appropriate antibiotics: G418 400 μg/ml; zeocin 100 μg/ml. Optimized CaPO4 protocols were used for high efficiency transient transfection of all cell lines (Fussenegger et al., 1998. Nat. Biotechnol. 16: 468-472). Transiently transfected cells were routinely analyzed after 48 h for CFP or SEAP expression using fluorescence microscopy and p-nitrophenolphosphate-based light absorbance timecourse, respectively, as described before (Fussenegger et al., 1998, Nat. Biotechnol. 16, 468-472; Berger et al., 1988, Gene 66, 1-10 b). For construction of stable CHO-ET1 and CHO-Triplet42 cell lines, CHO-Ki and CHO-TWIN1108 (Disclosed in PCT application no. 00/65080) were cotransfected with pWW35 and pZeoSV2 (invitrogen). CHO-ET11-SEAP was constructed by cotransfection of pWW38 and pSV2neo (Clontech) into CHO-ET11. The mixed populations were cloned using FACS-mediated single-cell-sorting (FACStar^Plus; Beckton Dickinson). For assessment of dose-response characteristics of PETR3-regulated gene expression, CHO-ET11-SEAP were cultured at cell densities of 50,000/ml for 48 h at various EM concentrations.
(§2) Other antibiotics were eluted from antibiotic test discs (Mast Diagnostica GmbH, Reinfeld, Germany, or bioMérieux, Geneva Switzerland) in cell culture medium at 37° C. for 12 h to reach a final concentration of 30 μg/ml. All macrolide antibiotics were used at a 2 μg/ml concentration unless indicated otherwise.
In order to analyze the potential of the MphR(A)/ETR system for the design of a novel mammalian gene regulation system, we adapted these regulatory elements for use in a eukaryotic context by construction of a set of two chimeric determinants: the EM-inhibited transactivators (ET, MphR(A) fused to different eukaryotic transactivation domains: ET1: MphR(A)-VP16; ET2: MphR(A)-p65; ET3: MphR(A)-E2F4) and the EM-responsive promoter (PETR3) (ETR fused to the minimal cytomegalovirus PhCMVmin; Gossen et al., (1992). Proc. Natl. Acad. Sci. USA 89, 5547-5551). […] CFP-expression could only be detected when pWW44 was cotransfected with an ET1-encoding pWW35, showing that the chimeric ET1 protein functions as a transactivator for PETR3 in mammalian cells.
To analyze the regulatory performance of promoters PETR1 and PETR4, an ET1-encoding vector (pWW35) was cotransfected with pWW36 and pWW39 into CHO-K1 cells. […] The results are shown in Table 6 together with the values of an ET1/PETR3 transfection (Table 5) for better comparison.

[2] = tested on: ET1 (MphR(A)-VP16) / PETR promoters; assay: SEAP reporter assay, CHO lines stably expressing ET1 (CHO-ET11, CHO-ET12) transiently transfected with PETR-SEAP plasmids; assay type: cell-based; details: for SEAP Production (%) +EM: 2 μg/ml EM, −EM = 100; for SEAP activity [U/L] + EM: erythromycin 2 μg/ml
Method: as §1, §2
Two representative clones, CHO-ET11 and CHO-ET12, were chosen at random among ET1-expressing CHO cell clones stably transfected with a constitutive ET1 expression construct (pWW35).
Access to alternative effective antibiotics would expand the spectrum of regulating agents available for future use in human cell and gene therapy. Accordingly, several commercially available antibiotic sources were tested for their potential to regulate the ET1/PETR3 system as shown below in Table 3.
The effect of the different spacer length in promoters PETR2 and PETR7-PETR11 were examined by transfecting the corresponding plasmids (pWW37, pBP10-pBP14) into a CHO cell line stably transfected with the transactivator ET1 (MphR(A)-VP 16, see example 1).

[3] = tested on: ET1 / erythromycin-responsive promoter PETR3; assay: SEAP assay in CHO-Triplet42 transfected with PETR3-SEAP (pWW38); assay type: cell-based; details: CHO-Triplet42 + PWW38 (PETR3); antibiotic 2 μg/ml; 48 h
Method: as §1, §2
(§3) The regulation performance of the EM-based regulation system was compared directly with the widely used TET- and PIP responsive expression concepts. To this end, we have constructed a stable CHO-K1-derived cell line expressing ET1, PIT and tTA (CHO-Triplet42). […] CHO-Triplet42 was transfected with either isogenic (i) PETR3-(pWW38), (ii) a PPIR-(pristinamycin-responsive promoter, pMF172, Fussenegger et al., 2000. supra.), or (iii) a PhCMV*-1-(tetracycline-responsive promoter, pMF111, Fussenegger et al., 2000. supra) driven SEAP expression vector to assess the individual regulation performance of the three antibiotic-responsive gene regulation systems in CHO cells (Table 5).
(§4) To analyze the relative regulatory characteristics, we evaluated induction factors (IF; ratio of maximal expression level to antibiotic-repressed expression level).
(§5) These repressive effects are still in a range which is tolerable for use in potential medical applications.

[4] = tested on: PIT / pristinamycin-responsive promoter PPIR; assay: SEAP assay in CHO-Triplet42 transfected with PPIR-SEAP (pMF172); assay type: cell-based; details: CHO-Triplet42 + pMF172 (PPIR); antibiotic 2 μg/ml; 48 h
Method: as §1, §2, §3, §4, §5

[5] = molecular target: T1, tTA / tetracycline-responsive promoter PhCMV*-1 (Escherichia coli, UniProt P04483); assay: SEAP assay in CHO-Triplet42 transfected with PhCMV*-1-SEAP (pMF111); assay type: cell-based; details: CHO-Triplet42 + pMF111 (PhCMV*-1); antibiotic 2 μg/ml; 48 h
T1 construct: expressed in transfected cells; host or cells: CHO-Triplet42 (from CHO-TWIN1108)
T1 sequence (P04483 whole entry, added parts left off): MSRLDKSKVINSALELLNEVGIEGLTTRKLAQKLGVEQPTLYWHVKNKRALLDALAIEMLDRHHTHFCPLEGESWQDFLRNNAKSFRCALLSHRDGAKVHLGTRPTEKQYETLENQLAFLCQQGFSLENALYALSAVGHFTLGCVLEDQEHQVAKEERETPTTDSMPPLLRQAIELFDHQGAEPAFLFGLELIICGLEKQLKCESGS
Method: as §1, §2

[6] = tested on: ET1/PETR3 positive feedback expression unit; assay: Autoregulated pWW46 (PETR3-CFP-IRES-ET1-pA) CFP expression by fluorescence microscopy; assay type: cell-based; details: pWW46 in CHO-K1, HeLa, COS-7 or HEK 293-T cells; erythromycin 2 μg/ml
From the text: These positive feedback regulation vectors that were constructed contain both the cyan fluorescent protein CFP and ET1 in a dicistronic, PETR3-driven configuration.

CC[C@H]1OC(=O)[C@H](C)[C@@H](O[C@H]2C[C@@](C)(OC)[C@@H](O)[C@H](C)O2)[C@H](C)[C@@H](O[C@@H]2O[C@H](C)C[C@H](N(C)C)[C@H]2O)[C@](C)(O)C[C@@H](C)C(=O)[C@H](C)[C@@H](O)[C@]1(C)O [Erythromycin]
SEAP activity [U/L] + Erythromycin [10 μg/ml] ([1]; CHO + pBP37 + pWW38 (ET5 + PETR3), 48 hr): 12.1 ± 1.5 U/L
SEAP activity [U/L] + Erythromycin [10 μg/ml] ([1]; CHO + pBP38 + pWW38 (ET6 + PETR3), 48 hr): 5.8 ± 0.5 U/L
SEAP activity [U/L] + Erythromycin [10 μg/ml] ([1]; CHO + pBP39 + pWW38 (ET7 + PETR3), 48 hr): 2.3 ± 0.2 U/L
SEAP activity [U/L] + Erythromycin [10 μg/ml] ([1]; CHO + pWW35 + pWW36 (ET1 + PETR1-SEAP), 48 hrs): 5.3 ± 0.6 U/L
SEAP activity [U/L] + Erythromycin [10 μg/ml] ([1]; CHO + pWW35 + pWW38 (ET1 + PETR3), 48 hr post transfection): 5.2 ± 0.5 U/L
SEAP activity [U/L] + Erythromycin [10 μg/ml] ([1]; CHO + pWW35 + pWW39 (ET1 + PETR4-SEAP), 48 hrs): 29.3 ± 0.6 U/L
SEAP activity [U/L] + Erythromycin [10 μg/ml] ([1]; CHO + pWW42 + pWW38 (ET2 + PETR3), 48 hr): 2.5 ± 0.6 U/L
SEAP activity [U/L] + Erythromycin [10 μg/ml] ([1]; CHO + pWW64 + pWW38 (ET3 + PETR3), 48 hr): 1.0 ± 0.4 U/L
SEAP Production (%) +EM ([2]; CHO-ET11 + PETR3-SEAP (pWW38)): 1.75 ± 0.1%
SEAP production [%] ([2]; CHO-ET11 transiently transfected with pWW38, 48 h, antibiotic 2 μg/ml, no macrolide = 100): 1.7 ± 0.1%
SEAP Production (%) +EM ([2]; CHO-ET12 + PETR3-SEAP (pWW38)): 4.67 ± 0.8%
Reversibility of EM-responsive SEAP regulation ([2]; both CHO-ET1 derivatives, repeated cycles of addition and withdrawal): fully reversible
SEAP activity [U/L] + EM ([2]; pBP10 (PETR7, 2 bp) in CHO stably transfected with ET1, 48 h): 4.2 ± 1.0 U/L
SEAP activity [U/L] + EM ([2]; pBP12 (PETR9, 6 bp) in CHO stably transfected with ET1, 48 h): 8.4 ± 1.6 U/L
SEAP activity [U/L] + EM ([2]; pBP13 (PETR10, 8 bp) in CHO stably transfected with ET1, 48 h): 19.7 ± 1.4 U/L
SEAP activity [U/L] + EM ([2]; pWW37 (PETR2, 0 bp) in CHO stably transfected with ET1, 48 h): 8.3 ± 0.2 U/L
SEAP activity [U/L] [3]: 3.8 ± 0.4 U/L
SEAP activity [U/L] [4]: 10.1 ± 1.5 U/L
SEAP activity [U/L] [5]: 195.1 ± 15.1 U/L
CFP-expression (fluorescence microscopy) [6]: completely repressed
